Common to all, as to type: cell-based
The test system of experiment [1] is Jurkat cells. Put plainly: Cell viability assay (WST-1), Jurkat cells. The following applies: Homo sapiens, WST-1, 48-72 hrs, 0.5% fetal calf serum. The procedure:
(§1) Jurkat and Hela cells were cultured in RPMI and EMEM media, respectively, containing 0.5% fetal calf serum. Cells were plated in a volume of 100 μL in a 96 well format. Test compounds were included in the culture media at concentrations ranging from 1 nM to 10 μM for a period of 48-72 hrs. Cell viability was determined using the WST-1 calorimetric mitochondrial reduction assay. Briefly, 10 μL of WST-1 reagent was included in the culture well for a period of 1 to 4 hrs. The WST-1 reaction was read on a multiwell spectrophotometer as the difference in the absorbance between 450 nm and 600 nm (baseline). Absorbance was proportional to the number of living cells in the culture well. Concentration response curves and IC50 values were calculated using GraphPAD Prism graphing and curve fitting program.
Background: Formazan colour is commonly taken as a measure of viable cells.

In experiment [2] the test system is Jurkat T-cell leukemic cells. In words: Cell cycle assay (Example 163), G2/M block in Jurkat cells. Particulars: Homo sapiens, Jurkat, 24 h, flow cytometry (PI), Table 2. In general terms: Flow cytometry measures light scatter and fluorescence of single cells or particles in a stream.
The subject of experiment [3] is Hela cells. In words: Cell viability assay (WST-1), Hela cells. Particulars: Homo sapiens, HeLa, WST-1, 48-72 hrs, 0.5% fetal calf serum. The procedure: as §1
In experiment [4] the test system is MCF-7 breast cancer cells. Put plainly: Cell cycle assay (Example 163), G2/M block in MCF-7 cells. Particulars: Homo sapiens, MCF7, 24 h, flow cytometry (PI), Table 2.

As usually defined, the IC50 is the midpoint of a concentration-inhibition curve. The low end stands for greater potency in that assay, the high end for weaker potency in that assay. On to `Oc1cc(Nc2cccnc2)cc(-c2cccc3cn[nH]c23)c1` [3-(1H-Indazol-7-yl)-5-(pyridin-3-ylamino)-phenol], for which the IC50 in experiment [1] was 1 to 999 nM; in experiment [3], 1000 to 30000 nM. Further, in experiment [2], the activation at 0.1 µM is below 50%. In experiment [4], this molecule registered an activation at 1 µM below 50%.

As to `O=C(c1ccc(CO)nc1)c1cc(O)cc(-c2cccc3[nH]ccc23)c1` [[3-Hydroxy-5-(1H-indol-4-yl)-phenyl]-(6-hydroxymethyl-pyridin-3-yl)-methanone], the IC50 was 1000 to 30000 nM in experiment [1] and above 3000 nM in experiment [3]. Moreover, the activation at 0.1 µM in experiment [2] is below 50%. This molecule also showed an activation at 1 µM in experiment [4] below 50%.

`Oc1cc(Nc2cccnc2)cc(-c2ccc3[nH]ccc3c2)c1` [3-(1H-Indol-5-yl)-5-(pyridin-3-ylamino)-phenol]: the IC50 is 1 to 999 nM in experiment [1] and 1000 to 30000 nM in experiment [3]. Moreover, the activation at 0.1 µM in experiment [2] is at least 50%. Further, the activation at 1 µM in experiment [4] was below 50%.

Take `O=[N+]([O-])c1cc(Nc2cccnc2)cc(-c2cccc3[nH]ccc23)c1` [[3-(1H-Indol-4-yl)-5-nitro-phenyl]-pyridin-3-yl-amine]: the 50% inhibitory concentration (IC50) lay in the range of 1 to 999 nM in experiment [1] and 1000 to 30000 nM in experiment [3]. In experiment [2], this molecule returned an activation at 0.1 µM below 50%. Also, in experiment [4], the activation at 1 µM was below 50%.

`Oc1cc(Nc2cccnc2)cc(-c2ccccc2C(F)(F)F)c1` [5-(Pyridin-3-ylamino)-2′-trifluoromethyl-biphenyl-3-ol]: the values for the IC50 in experiment [1] and in experiment [3] were above 3000 nM and 1000 to 30000 nM, respectively. This molecule registered an activation at 0.1 µM in experiment [2] of at least 50%. Moreover, the activation at 1 µM in experiment [4] is below 50%.

On to `Oc1cc(Nc2cccnc2)cc(-c2ccccc2Cl)c1` [2′-Chloro-5-(pyridin-3-ylamino)-biphenyl-3-ol], for which the results for the IC50 in experiment [1] and in experiment [3] were above 3000 nM and 1000 to 30000 nM, respectively. The activation at 0.1 µM in experiment [2] was below 50%. In experiment [4], the activation at 1 µM was below 50%.

Regarding `Cc1cncc(C(=O)c2cc(O)cc(-c3cccc4[nH]ccc34)c2)c1` [[3-Hydroxy-5-(1H-indol-4-yl)-phenyl]-(5-methyl-pyridin-3-yl)-methanone], the IC50 in experiment [1] and in experiment [3] was 1 to 999 nM in each case. Moreover, the activation at 0.1 µM in experiment [2] was at least 50%. Also, the activation at 1 µM in experiment [4] is at least 50%.

`Oc1cc(Nc2cnccn2)cc(-c2cccc3[nH]ccc23)c1` [3-(1H-Indol-4-yl)-5-(pyrazin-2-ylamino)-phenol]: the concentration for half-maximal inhibition (IC50) in experiment [1] and in experiment [3] was 1 to 999 nM each time. This molecule also came in with an activation at 0.1 µM in experiment [2] of at least 50%. The activation at 1 µM in experiment [4] is at least 50%.

In the case of `N#Cc1cnc(Nc2cc(O)cc(-c3cccc4[nH]ccc34)c2)cn1` [5-[3-Hydroxy-5-(1H-indol-4-yl)-phenylamino]-pyrazine-2-carbonitrile], the concentration for half-maximal inhibition (IC50) in experiment [1] is above 3000 nM; in experiment [3], 1000 to 30000 nM. In experiment [2], the activation at 0.1 µM is below 50%. This molecule also displayed an activation at 1 µM in experiment [4] of at least 50%.

As to `Nc1ccc(C(=O)c2cc(O)cc(-c3cccc4[nH]ccc34)c2)cn1` [(6-Amino-pyridin-3-yl)-[3-hydroxy-5-(1H-indol-4-yl)-phenyl]-methanone], the IC50 is 1 to 999 nM in experiment [1] and 1000 to 30000 nM in experiment [3]. The activation at 0.1 µM in experiment [2] was below 50%. The activation at 1 µM in experiment [4] was at least 50%.

For the molecule `CS(=O)(=O)Nc1cccc(-c2cc(O)cc(Nc3cccnc3)c2)c1` [N-[5′-Hydroxy-3′-(pyridin-3-ylamino)-biphenyl-3-yl]-methanesulfonamide], the IC50 in experiment [1] and in experiment [3] was 1000 to 30000 nM in each case. This molecule also displayed an activation at 0.1 µM in experiment [2] below 50%. The molecule further showed an activation at 1 µM in experiment [4] of at least 50%.

In the case of `O=C(c1cc(O)cc(-c2cccc3[nH]ccc23)c1)c1cnccn1` [[3-Hydroxy-5-(1H-indol-4-yl)-phenyl]-pyrazin-2-yl-methanone], the IC50 in experiment [1] and in experiment [3] was 1 to 999 nM each time. In experiment [2], this molecule yielded an activation at 0.1 µM below 50%. The activation at 1 µM in experiment [4] is below 50%.

For the molecule `Oc1ccc(C(O)c2cccnc2)cc1C12CC3CC(CC(C3)C1)C2` (stereo not drawn) [2-Adamantan-1-yl-4-(hydroxy-pyridin-3-yl-methyl)-phenol], the IC50 in experiment [1] was 1000 to 30000 nM; in experiment [3], above 3000 nM. In experiment [2], this molecule showed an activation at 0.1 µM below 50%.

For the molecule `O=C(c1cccnc1)c1ccc(O)c(C23CC4CC(CC(C4)C2)C3)c1` [(3-Adamantan-1-yl-4-hydroxy-phenyl)-pyridin-3-yl-methanone], the values for the IC50 in experiment [1] and in experiment [3] were 1000 to 30000 nM and above 3000 nM, respectively. Also, in experiment [2], the activation at 0.1 µM is below 50%. In addition, the activation at 1 µM in experiment [4] was below 50%.

In the case of `Oc1cc(Nc2cccnc2)cc(-c2ccc3cc[nH]c3c2)c1` [3-(1H-Indol-6-yl)-5-(pyridin-3-ylamino)-phenol], the IC50 in experiment [1] and in experiment [3] was 1000 to 30000 nM in each case. The same molecule registered an activation at 0.1 µM in experiment [2] below 50%. Also, the activation at 1 µM in experiment [4] was below 50%.

As for `Oc1cc(Nc2cccnc2)cc(-c2cnc3ccccc3c2)c1` [3-(Pyridin-3-ylamino)-5-quinolin-3-yl-phenol], the IC50 in experiment [1] is 1 to 999 nM; in experiment [3] it was 1000 to 30000 nM. Moreover, the activation at 0.1 µM in experiment [2] is below 50%. Also, the activation at 1 µM in experiment [4] was below 50%.

With `COc1ccc(Cc2c(O)cc(Nc3cccnc3)cc2-c2cccc3sccc23)cc1` [3-benzo[b]thiophen-4-yl-2-(4-methoxy-benzyl)-5-(pyridin-3-ylamino)-phenol], the IC50 in experiment [1] and in experiment [3] was 1000 to 30000 nM throughout. For the same molecule, the activation at 0.1 µM in experiment [2] was at least 50%. Besides, in experiment [4], the activation at 1 µM is below 50%.

`Cc1ccc(C(=O)c2cc(O)cc(-c3cccc4[nH]ccc34)c2)cn1` [[3-Hydroxy-5-(1H-indol-4-yl)-phenyl]-(6-methyl-pyridin-3-yl)-methanone]: the IC50 in experiment [1] fell in the range of 1 to 999 nM; in experiment [3] it was 1000 to 30000 nM. Further, in experiment [2], the activation at 0.1 µM is below 50%.

On to `Oc1cc(Nc2ccncc2)cc(-c2cccc3[nH]ccc23)c1` [3-(1H-Indol-4-yl)-5-(pyridin-4-ylamino)-phenol], for which the IC50 in experiment [1] and in experiment [3] was 1 to 999 nM each time. In experiment [2], this molecule registered an activation at 0.1 µM of at least 50%. In experiment [4], this molecule yielded an activation at 1 µM of at least 50%.

Turning to `CN(C)c1cccc(-c2cc(O)cc(Nc3cccnc3)c2)c1` [3′-Dimethylamino-5-(pyridin-3-ylamino)-biphenyl-3-ol], the IC50 in experiment [1] and in experiment [3] was 1000 to 30000 nM throughout. In experiment [2], this molecule registered an activation at 0.1 µM below 50%. Further, the activation at 1 µM in experiment [4] was below 50%.

In the case of `Oc1cc(Nc2cccnc2)cc(-c2cccc3[nH]ccc23)c1Cc1ccccc1` [2-Benzyl-3-(1H-Indol-4-yl)-5-(pyridin-3-ylamino)-phenol], the IC50 in experiment [1] and in experiment [3] was 1000 to 30000 nM in each case. This molecule also returned an activation at 0.1 µM in experiment [2] below 50%. The same molecule had an activation at 1 µM in experiment [4] below 50%.

For the molecule `Oc1cc(Nc2cccnc2)cc(-c2cccc3cc[nH]c23)c1` [3-(1H-Indol-7-yl)-5-(pyridin-3-ylamino)-phenol], the IC50 is 1000 to 30000 nM in experiment [1] and above 3000 nM in experiment [3]. This molecule yielded an activation at 0.1 µM in experiment [2] below 50%. The molecule also came in with an activation at 1 µM in experiment [4] below 50%.

`O=C(c1cc(O)cc(-c2cccc3[nH]ccc23)c1)c1cccnc1Cl` [(2-Chloro-pyridin-3-yl)-[3-hydroxy-5-(1H-indol-4-yl)-phenyl]-methanone]: the IC50 in experiment [1] and in experiment [3] was 1000 to 30000 nM in each case. Besides, the activation at 0.1 µM in experiment [2] is below 50%. In experiment [4], this molecule showed an activation at 1 µM below 50%.

In the case of `Oc1cc(Nc2ccc(O)nc2)cc(-c2cccc3[nH]ccc23)c1` [5-[3-Hydroxy-5-(1H-indol-4-yl)-phenylamino]-pyridin-2-ol], the IC50 lay within 1000 to 30000 nM in experiment [1] and 1 to 999 nM in experiment [3]. This molecule also returned an activation at 0.1 µM in experiment [2] below 50%.

The record behind these values is US20080280891A1, “Anti-cancer agents and uses thereof” (Locus Pharmaceuticals, Inc., priority 2006, published 2008).
